# Measured values: US20130217092A1, “Enhancing Reactivation of Thermostable Reversibly Inactivated Enzymes” (Qiagen GmbH, priority 2006, published 2013)
# Legend:
# Assay type in all cases: biochemical
# [1] = target: chemically modified enzyme (Thermus aquaticus, UniProt P19821); assay: Additionally tested compounds, enhancement of enzyme activity of a chemically modified enzyme; details: conditions not stated
# [2] = target: T1, HotStarTaq DNA Polymerase (Thermus aquaticus, UniProt P19821); assay: Fast PCR with ammonium chloride, agarose gel, Example 4; details: 10, 20 and 30 mM ammonium chloride vs 0 mM; PCR assays A, B, C; FIG. 3
# T1 construct: purchased QIAGEN
# Description: Each PCR reaction contained 1.5 units HotStarTaq DNA Polymerase, 10 ng template human or mouse genomic DNA, 200 μM of each dNTP, 0.5 μM of each primer for each different PCR assay (Assay A, primer A1: 5′-GCTTGAGCAACCTGGCTAAGATAGAGG-3′ (SEQ ID NO:7), primer A2: 5′-GAGTTAGCAGGAGGCTGGATGCAGATG-3′ (SEQ ID NO:8); Assay B, primer B1: 5′-CCACAATGGACATCACACAAGTGAG-3′ (SEQ ID NO:9), primer B2: 5′-GATCTTTCTGCCCAGATACCATTCG-3′ (SEQ ID NO:10); Assay C, primer C1: 5′-CCTTGCCTTAGATGTGTCGGCA-3′ (SEQ ID NO:11), primer C2: 5′-CCCAAACCCAACCCATACACAC-3′ (SEQ ID NO:12)) and PCR grade water. PCR reactions were started with an initial enzyme activation step at 95° C. for 5 minutes followed by 35 cycles: 96° C. for 5 seconds, 60° C. for 5 seconds and 68° C. for 30 seconds/kb PCR product size. PCR products were analysed on a 1% TAE agarose gel. M: DNA size ladder (FIG. 3).
# [3] = target: T2, HotStarTaq DNA polymerase (QIAGEN) (Thermus aquaticus, UniProt P19821); assay: SYBR Green I real-time PCR, Example 1, reactivation of chemically modified enzyme
# T2 construct: purchased QIAGEN
# Source text: (§1) As model system to exemplify the invention, hot start PCR was chosen with two commercially available enzymes. […] AmpliTaq Gold (Applied Biosystems) is chemically inactivated using dicarboxylic acid anhydride whereas HotStarTaq (QIAGEN) is chemically inactivated using formaldehyde.
# (§2) In real-time PCR, the enzymatic reaction is continuously monitored by measuring fluorescence signals throughout the reaction. Double-stranded DNA molecules are generated during the PCR reaction. These PCR products are detected by using SYBR Green I fluorescent dye that binds selectively to dsDNA only. Thus, an increase of fluorescence indicates an increase in PCR product amount and thus activity of the DNA polymerase contained in the reaction. […] Thus, the CT value is a measurement for the enzyme activity contained in the reaction: Low CT values indicate high enzyme activity and high CT values represent lower enzyme activity residing in the reaction.
# (§3) A SYBR Green I based PCR reaction was conducted in the presence of unmodified Taq DNA Polymerase (QIAGEN) serving as a control reaction, using HotStarTaq DNA polymerase (QIAGEN) or AmpliTaq Gold (Applied Biosystems). Each reaction contained 0.625 units of the respective DNA polymerase, 1× PCR reaction buffer of the respective DNA polymerase, 200 μM of each dNTP, 0.5 μM primer A: 5′-[…]-3′ (SEQ ID NO:1), 0.5 μM primer B: 5′-[…]-3′ (SEQ ID NO:2), PCR grade water and in case of testing nitrogen-containing compounds as example 100 mM Triazole, final concentration. Each reaction contained 10 ng human genomic DNA as amplification substrate. PCR reactions were started with an initial enzyme activation step at 95° C. for 5 minutes followed by 50 cycles: 94° C. for 15 seconds and 60° C. for 60 seconds. Average CT values were determined from triplicate reactions comparing reactions without the addition of Triazole and with 100 mM Triazole.
# [4] = target: T3, AmpliTaq Gold (Applied Biosystems) (Thermus aquaticus, UniProt P19821); assay: as above
# T3 construct: purchased Applied Biosystems
# Source text: as §1, §2, §3
# [5] = target: T1, HotStarTaq DNA Polymerase; assay: Fast PCR with 20 mM ammonium chloride and Triazole, agarose gel, Example 5
# Description: System C shown in Example 4 was chosen as model system. Each PCR reaction contained 1.5 units HotStarTaq DNA Polymerase, 10 ng template human genomic DNA, 200 μM of each dNTP, 0.5 μM of each primer A: 5′-CCTTGCCTTAGATGTGTCGGCA-3′ (SEQ ID NO:11), primer B: 5′-CCCAAACCCAACCCATACACAC -3′ (SEQ ID NO:12), and PCR grade water. PCR reactions were started with an initial enzyme activation step at 95° C. for 5 minutes followed by 35 cycles: 96° C. for 5 seconds, 60° C. for 5 seconds and 68° C. for 45 seconds. PCR products from duplicate reactions were analysed on a 1% TAE agarose gel. M: DNA size ladder.
# [6] = target: T1, HotStarTaq DNA Polymerase; assay: Fast PCR with shortened cycling times, agarose gel, Example 2; details: 100, 200, 300, 400 and 500 mM Triazole vs absence of Triazole; FIG. 1
# Description: Each PCR reaction contained 1.5 units HotStarTaq DNA Polymerase, 10 ng template human genomic DNA, 200 μM of each dNTP, 0.5 μM primer A: 5′-CACACAGCGATGGCAGCTATGC-3′ (SEQ ID NO:3), 0.5 […] primer B: 5′-CCC AGT GAT GGG CCA GCT C-3′ (SEQ ID NO:4), PCR grade water and in case of testing nitrogen-containing compounds as example 100 mM, 200 mM, 300 mM, 400 mM and 500 mM Triazole, final concentration. PCR reactions were started with an initial enzyme activation step at 95° C. for 5 minutes followed by 35 cycles: 96° C. for 5 seconds, 60° C. for 5 seconds and 68° C. for 30 seconds. PCR products were analysed on a 1% TAE agarose gel (FIG. 1).
# [7] = target: T4, unmodified Taq DNA Polymerase (QIAGEN) (Thermus aquaticus, UniProt P19821); assay: SYBR Green I real-time PCR, Example 1 (control enzyme)
# T4 construct: purchased QIAGEN
# Source text: as §2
# as §3, with “Each reaction contained 10 ng human genomic DNA as amplification substrate. PCR reactions were started with an initial enzyme activation step at 95° C. for 5 minutes followed by 50 cycles: 94° C. for 15 seconds and 60° C. for 60 seconds.” left out
# T1 sequence (P19821 whole entry): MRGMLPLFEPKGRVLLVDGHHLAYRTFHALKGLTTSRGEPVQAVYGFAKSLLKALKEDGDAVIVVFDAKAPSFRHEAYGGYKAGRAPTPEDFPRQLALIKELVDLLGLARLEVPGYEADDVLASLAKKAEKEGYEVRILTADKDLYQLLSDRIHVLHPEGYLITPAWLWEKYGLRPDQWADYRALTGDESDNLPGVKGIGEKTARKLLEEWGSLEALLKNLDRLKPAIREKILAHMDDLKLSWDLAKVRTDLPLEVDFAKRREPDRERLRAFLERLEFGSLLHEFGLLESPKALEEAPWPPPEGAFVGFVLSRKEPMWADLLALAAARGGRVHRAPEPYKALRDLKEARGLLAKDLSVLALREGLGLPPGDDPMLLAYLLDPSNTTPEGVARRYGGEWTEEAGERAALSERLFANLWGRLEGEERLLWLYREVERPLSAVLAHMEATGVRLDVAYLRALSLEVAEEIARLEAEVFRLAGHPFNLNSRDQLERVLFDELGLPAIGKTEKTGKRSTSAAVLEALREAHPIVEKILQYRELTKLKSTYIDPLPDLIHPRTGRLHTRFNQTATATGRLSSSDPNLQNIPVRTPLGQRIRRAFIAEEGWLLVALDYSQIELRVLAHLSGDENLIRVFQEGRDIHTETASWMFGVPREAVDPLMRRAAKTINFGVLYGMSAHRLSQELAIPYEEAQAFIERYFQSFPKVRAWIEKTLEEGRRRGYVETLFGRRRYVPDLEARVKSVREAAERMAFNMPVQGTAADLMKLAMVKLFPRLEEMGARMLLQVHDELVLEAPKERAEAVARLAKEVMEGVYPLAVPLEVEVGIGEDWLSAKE
# Sequence of chemically modified enzyme (P19821 whole entry): as above
# T2 sequence (P19821 whole entry): as above
# T3 sequence (P19821 whole entry): as above
# T4 sequence (P19821 whole entry): as above
molecule,measurement,setting,value
N.O=C(O)c1ccccc1 [ammonium benzoate],improvement of enzyme activity,[1],no improvement
N.N.O=C(O)O [ammonium carbonate],improvement of enzyme activity,[1],no improvement
Cl.N [ammonium chloride],overall enzyme activity of the chemically inactivated enzyme,[2],increase of overall enzyme activity
N.N.O=S(=O)(O)O [ammonium sulfate],improvement of enzyme activity,[1],no improvement
N.N.O=P(O)(O)O [di-ammonium hydrogen phosphate],improvement of enzyme activity,[1],no improvement
Triazole,effect on the enzyme activity,"[3]; 100 mM Triazole, HotStarTaq DNA Polymerase",clearly higher enzyme activity
same,Average CT value with 100 mM Triazole,"[3]; HotStarTaq, activation 95° C. for 5 minutes, triplicate reactions, low CT = high enzyme activity",35.9
same,effect on the enzyme activity,[4]; 100 mM Triazole,clearly higher enzyme activity
same,Average CT value with 100 mM Triazole,"[4]; activation 95° C. for 5 minutes, triplicate reactions, low CT = high enzyme activity",25.6
same,enzyme activity of the chemically modified enzyme,[5]; 500 mM Triazole in the presence of 20 mM ammonium chloride,still higher than in the reaction without Triazole
same,enzyme activity of the chemically modified enzyme,"[5]; Triazole 100-500 mM in the presence of 20 mM ammonium chloride vs no Triazole, FIG. 4",clear benefit for the enzyme activity
same,enzyme activity / generation of the desired PCR product under fast cycling,[6],significantly improves enzyme activity
same,effect on the enzyme activity,"[7]; 100 mM Triazole, unmodified Taq DNA polymerase",no effect
same,Average CT value with 100 mM Triazole,"[7]; Taq (unmodified), activation 95° C. for 5 minutes, triplicate reactions, low CT = high enzyme activity",21.3
ammonium citrate,improvement of enzyme activity,[1],no improvement
